From patent US20210155604A1, “QUINAZOLINE COMPOUND SERVING AS EGFR TRIPLE MUTATION INHIBITOR AND APPLICATIONS THEREOF” (EAST CHINA UNIVERSITY OF SCIENCE AND TECHNOLOGY, priority 2018, published 2021)

Key:
EGFR(WT) = EGFR(WT) (Homo sapiens, UniProt P00533); experiment: ELISA kinase activity detection, EGFR(WT); type: biochemical; conditions: ELISA-based EGFR-TK assay, ATP 5 μM; mean ± SD of at least two determinations
Experimental: (§1) Tyrosine kinase: EGFR(WT) • EGFR^T790M/L858R(LR/TM) • EGFR^T790M/L858R/[…](LR/TM/CS)
(§2) ELISA Kinase Activity Detection
Enzyme-Linked Immunosorbent Assay (ELISA) was used to detect the ability of a kinase to phosphorylate a substrate and calculate the inhibitory effect of a compound on the kinase activity. […]
(§3) The main steps of ELISA are listed as follows: the substrate Poly(Glu, Tyr) 4:1 was diluted with potassium ion-free PBS to 2.5 μg/well, incubated at 37° C. for 12-16 h to coat the ELISA plate for use. An ATP solution (final concentration of 5 μM) diluted with a reaction buffer (50 mM HEPES pH 7.4, 20 mM MgCl2, 0.1 mM MnCl2, 0.2 mM Na3VO4, 1 mM DTT) was added to each well. A compound or solvent control was added, and then a kinase was added to start the reaction at 37° C. in a shaker for 1 h. The plate was washed for three times with T-PBS, and 100 μL of antibody PY99 (diluted in T-PBS containing 5 mg/mL BSA, 1: 500) was added, and incubated in a shaker at 37° C. for 0.5 h. After washing the plate with T-PBS, 100 μL of horseradish peroxidase-labeled goat anti-mouse IgG (diluted in T-PBS containing 5 mg/mL BSA, 1: 2000) was added, and incubated in a shaker at 37° C. for 0.5 h. After washing the plate again, a developing liquid containing 0.03% H2O2, 2 mg/mL OPD (0.1 mol/L, in citrate buffer solution pH 5.4) was added at 100 μL/well, and incubated for 1-10 min at 25° C. in darkness. 50 μL/well of 2 M H2SO4 was added to quench the reaction, and read with a wavelength-tunable microplate reader (SpectraMax Plus384, Molecular Devices) at a wavelength of 490 nm. The IC50 value was obtained from the inhibition curve.

EGFR L858R/T790M (LR/TM) = EGFR L858R/T790M (LR/TM) (Homo sapiens, UniProt P00533, L858R/T790M); experiment: ELISA kinase activity detection, EGFR double mutant; type: biochemical; conditions: ELISA-based EGFR-TK assay, ATP 5 μM, mean ± SD
Sequence of EGFR L858R/T790M (LR/TM) (P00533 25-1210 T790M/L858R): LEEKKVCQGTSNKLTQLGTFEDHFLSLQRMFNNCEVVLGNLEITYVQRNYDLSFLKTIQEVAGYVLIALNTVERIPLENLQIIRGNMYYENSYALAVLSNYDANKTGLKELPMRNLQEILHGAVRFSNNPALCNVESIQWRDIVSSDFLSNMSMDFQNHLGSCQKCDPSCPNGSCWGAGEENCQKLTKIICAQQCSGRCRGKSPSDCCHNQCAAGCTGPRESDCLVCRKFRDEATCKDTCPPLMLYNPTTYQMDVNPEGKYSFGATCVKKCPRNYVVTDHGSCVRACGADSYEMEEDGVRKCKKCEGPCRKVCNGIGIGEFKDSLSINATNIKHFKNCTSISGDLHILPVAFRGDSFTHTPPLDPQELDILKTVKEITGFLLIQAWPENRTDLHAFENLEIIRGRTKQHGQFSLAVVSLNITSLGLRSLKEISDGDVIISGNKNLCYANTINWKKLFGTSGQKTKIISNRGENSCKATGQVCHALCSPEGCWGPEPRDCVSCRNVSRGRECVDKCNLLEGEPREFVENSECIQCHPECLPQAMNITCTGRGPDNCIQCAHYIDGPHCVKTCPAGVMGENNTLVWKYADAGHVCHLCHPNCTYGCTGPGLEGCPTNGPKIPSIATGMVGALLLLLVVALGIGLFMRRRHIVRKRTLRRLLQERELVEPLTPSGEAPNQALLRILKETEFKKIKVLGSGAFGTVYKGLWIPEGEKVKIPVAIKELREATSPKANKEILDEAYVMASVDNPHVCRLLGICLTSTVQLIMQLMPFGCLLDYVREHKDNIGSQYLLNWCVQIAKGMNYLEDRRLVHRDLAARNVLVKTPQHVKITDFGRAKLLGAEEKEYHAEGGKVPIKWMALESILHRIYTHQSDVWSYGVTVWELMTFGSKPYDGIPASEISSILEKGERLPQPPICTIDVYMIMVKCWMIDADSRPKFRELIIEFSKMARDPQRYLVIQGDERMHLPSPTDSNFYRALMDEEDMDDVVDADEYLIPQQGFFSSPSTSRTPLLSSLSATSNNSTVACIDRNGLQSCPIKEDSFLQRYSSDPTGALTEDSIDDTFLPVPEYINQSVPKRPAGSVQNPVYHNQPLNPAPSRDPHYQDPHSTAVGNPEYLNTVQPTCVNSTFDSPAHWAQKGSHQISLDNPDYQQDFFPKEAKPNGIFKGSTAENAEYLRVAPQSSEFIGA

[1] = target: T1, EGFR L858R/T790M/C797S (LR/TM/CS) (Homo sapiens, UniProt P00533, C797S/L858R/T790M); experiment: ELISA kinase activity detection, EGFR triple mutant; type: biochemical; conditions: ELISA-based EGFR-TK assay, ATP 5 μM, mean ± SD
T1 construct: purchased BPS Bioscience
T1 sequence (P00533 25-1210 T790M/C797S/L858R): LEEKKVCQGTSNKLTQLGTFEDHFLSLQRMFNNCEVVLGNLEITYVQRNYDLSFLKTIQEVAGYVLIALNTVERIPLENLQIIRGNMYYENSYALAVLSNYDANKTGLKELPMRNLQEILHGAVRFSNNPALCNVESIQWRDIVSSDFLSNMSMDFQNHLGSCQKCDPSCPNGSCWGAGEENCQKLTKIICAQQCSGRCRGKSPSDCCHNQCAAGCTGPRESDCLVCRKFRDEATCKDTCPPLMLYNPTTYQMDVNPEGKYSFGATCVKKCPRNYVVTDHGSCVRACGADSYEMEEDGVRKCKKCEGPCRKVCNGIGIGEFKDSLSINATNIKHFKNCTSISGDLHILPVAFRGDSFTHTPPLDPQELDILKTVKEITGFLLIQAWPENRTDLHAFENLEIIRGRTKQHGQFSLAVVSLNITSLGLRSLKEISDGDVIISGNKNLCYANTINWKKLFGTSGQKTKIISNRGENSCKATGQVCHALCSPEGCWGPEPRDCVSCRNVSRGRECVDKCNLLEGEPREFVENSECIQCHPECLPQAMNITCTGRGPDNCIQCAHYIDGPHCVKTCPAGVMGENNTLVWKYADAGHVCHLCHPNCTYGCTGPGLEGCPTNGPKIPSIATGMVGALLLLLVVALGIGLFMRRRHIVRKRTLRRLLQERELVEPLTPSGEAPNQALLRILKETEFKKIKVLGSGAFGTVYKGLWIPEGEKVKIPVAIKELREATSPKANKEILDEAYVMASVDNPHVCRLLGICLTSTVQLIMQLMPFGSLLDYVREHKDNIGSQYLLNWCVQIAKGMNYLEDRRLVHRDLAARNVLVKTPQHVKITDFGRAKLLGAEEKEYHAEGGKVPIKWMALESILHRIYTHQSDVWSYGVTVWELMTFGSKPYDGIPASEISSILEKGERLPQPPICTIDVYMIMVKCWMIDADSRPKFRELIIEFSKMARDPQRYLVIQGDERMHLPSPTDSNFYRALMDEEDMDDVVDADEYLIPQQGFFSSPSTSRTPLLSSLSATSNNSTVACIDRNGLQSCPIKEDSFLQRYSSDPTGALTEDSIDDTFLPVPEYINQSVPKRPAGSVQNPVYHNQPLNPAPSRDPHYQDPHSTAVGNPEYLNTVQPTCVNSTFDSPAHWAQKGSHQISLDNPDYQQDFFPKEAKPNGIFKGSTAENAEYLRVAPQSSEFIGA
Experimental: as §1, §2
Enzyme-Linked Immunosorbent Assay (ELISA) was used to detect the ability of a kinase to phosphorylate a substrate and calculate the inhibitory effect of a compound on the kinase activity. The used kinase was EGFR L858R/T790M/C797S (purchased from BPS Bioscience).
as §3

Sequence of EGFR(WT) (P00533 25-1210): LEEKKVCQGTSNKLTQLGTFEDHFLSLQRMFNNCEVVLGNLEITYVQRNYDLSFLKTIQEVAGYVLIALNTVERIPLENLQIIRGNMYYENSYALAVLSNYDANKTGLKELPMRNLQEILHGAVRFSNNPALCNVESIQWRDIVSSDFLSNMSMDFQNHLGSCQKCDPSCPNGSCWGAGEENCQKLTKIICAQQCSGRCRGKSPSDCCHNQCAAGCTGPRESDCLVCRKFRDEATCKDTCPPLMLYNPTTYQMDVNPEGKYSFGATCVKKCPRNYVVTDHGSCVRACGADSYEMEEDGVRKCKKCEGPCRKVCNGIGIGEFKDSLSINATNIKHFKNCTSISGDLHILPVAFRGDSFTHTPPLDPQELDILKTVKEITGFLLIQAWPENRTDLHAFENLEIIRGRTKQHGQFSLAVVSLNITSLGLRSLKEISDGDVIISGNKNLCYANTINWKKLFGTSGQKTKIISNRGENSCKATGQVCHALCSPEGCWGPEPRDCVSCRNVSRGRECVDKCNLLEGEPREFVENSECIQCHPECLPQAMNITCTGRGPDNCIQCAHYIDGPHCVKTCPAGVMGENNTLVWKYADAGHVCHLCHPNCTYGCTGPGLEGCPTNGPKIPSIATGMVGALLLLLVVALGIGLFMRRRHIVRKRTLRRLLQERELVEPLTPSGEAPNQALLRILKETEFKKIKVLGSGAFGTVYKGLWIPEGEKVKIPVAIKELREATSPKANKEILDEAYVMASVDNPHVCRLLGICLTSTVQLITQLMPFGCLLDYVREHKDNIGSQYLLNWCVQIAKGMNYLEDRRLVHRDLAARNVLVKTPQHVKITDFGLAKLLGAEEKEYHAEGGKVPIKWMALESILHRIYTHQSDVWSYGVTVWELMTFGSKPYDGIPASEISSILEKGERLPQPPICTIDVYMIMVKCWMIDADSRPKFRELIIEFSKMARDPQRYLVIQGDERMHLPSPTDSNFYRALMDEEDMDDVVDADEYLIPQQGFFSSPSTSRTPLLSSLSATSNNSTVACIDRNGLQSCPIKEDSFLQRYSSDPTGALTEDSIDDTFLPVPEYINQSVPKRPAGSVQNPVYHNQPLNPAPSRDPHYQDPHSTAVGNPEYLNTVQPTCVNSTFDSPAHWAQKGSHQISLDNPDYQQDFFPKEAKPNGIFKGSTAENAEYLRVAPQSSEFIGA

Compound	IC50 (EGFR(WT))	IC50 (EGFR L858R/T790M (LR/TM))	IC50 [1]	melting point
COc1cc2c(Nc3ccc(NC(=O)C(c4ccccc4)C(C)C)cc3F)ncnc2cc1OCC1CCN(C)CC1 (stereo not shown) [Example 10, N-(3-Fluoro-4-((6-methoxy-7-((1-methylpiperidin-4-yl)methoxy)quinazolin-4-yl)amino)phenyl)-3-methyl-2-phenylbutanamide]	23.1 ± 8.3 nM	2030 ± 755 nM	3190 ± 2500 nM	196 to 196.2 °C
COc1cc2c(Nc3ccc(NC(=O)C(c4ccccc4)c4ccccc4)cc3F)ncnc2cc1OCC1CCN(C)CC1 [Example 11, N-(3-fluoro-4-((6-methoxy-7-((1-methylpiperidin-4-yl)methoxy)quinazolin-4-yl)amino)phenyl)-2,2-diphenyl]	5.6 ± 3.3 nM	1000 ± 435 nM	1300 ± 308 nM	257 to 257.2 °C
COc1cc2c(Nc3ccccc3P(C)(C)=O)ncnc2cc1OCC1CCN(C)CC1 [Example 13, (2-((6-methoxy-7-((1-methylpiperidin-4-yl)methoxy)quinazolin-4-yl)amino)phenyl)dimethyl phosphine oxide]	7340 ± 2520 nM	> 10000 nM	> 10000 nM	150.5 to 150.8 °C
CN1CCC(COc2ccc3c(Nc4ccccc4P(C)(C)=O)ncnc3c2)CC1 [Example 14]	2710 ± 80.2 nM	> 10000 nM	9510 ± 526 nM	170.7 to 172.4 °C
